From ChEMBL document CHEMBL4393697, “Lipophilic efficient phenylthiazoles with potent undecaprenyl pyrophosphatase inhibitory activity” (Eur J Med Chem, 2019)
Converted amounts (≈) assume the structure as drawn.

Columns and labels:
Staphylococcus aureus [1] = assay: Antibacterial activity against methicillin resistant Staphylococcus aureus USA400 assessed as reduction in bacterial cell growth incubated for 18 to 20 hrs by broth microdilution method; type: functional
Acinetobacter baumannii [2] = assay: Bactericidal activity against Acinetobacter baumannii ATCC 19606 assessed as reduction in bacterial cell growth incubated for 18 to 20 hrs followed by re-plating on tryptic soy agar plates at 37 degC for 18 hrs by broth microdilution assay; type: functional
Escherichia coli [3] = assay: Antibacterial activity against Escherichia coli BW25113 assessed as reduction in bacterial cell growth incubated for 18 to 20 hrs by broth microdilution method; type: functional
Enterococcus faecium [4] = assay: Antibacterial activity against vancomycin resistant Enterococcus faecium ATCC 700221 assessed as reduction in bacterial cell growth incubated for 18 to 20 hrs by broth microdilution method; type: functional
Enterococcus faecalis [5] = assay: Antibacterial activity against vancomycin resistant Enterococcus faecalis ATCC 51299 assessed as reduction in bacterial cell growth incubated for 18 to 20 hrs by broth microdilution method; type: functional
Listeria monocytogenes [6] = assay: Bactericidal activity against Listeria monocytogenes ATCC 19111 assessed as reduction in bacterial cell growth incubated for 18 to 20 hrs followed by re-plating on tryptic soy agar plates at 37 degC for 18 hrs by broth microdilution assay; type: functional
Streptococcus pneumoniae [7] = assay: Antibacterial activity against Methicillin resistant Streptococcus pneumoniae ATCC 700677 assessed as reduction in bacterial cell growth incubated for 18 to 20 hrs by broth microdilution method; type: functional
Enterococcus faecalis [8] = assay: Bactericidal activity against vancomycin resistant Enterococcus faecalis ATCC 51299 assessed as reduction in bacterial cell growth incubated for 18 to 20 hrs followed by re-plating on tryptic soy agar plates at 37 degC for 18 hrs by broth microdilution assay; type: functional
Staphylococcus aureus [9] = assay: Antibacterial activity against vancomycin resistant Staphylococcus aureus VRS12 assessed as reduction in bacterial cell growth incubated for 18 to 20 hrs by broth microdilution method; type: functional
Staphylococcus aureus [10] = assay: Antibacterial activity against methicillin-resistant Staphylococcus aureus USA300 assessed as reduction in bacterial cell growth incubated for 18 to 20 hrs by broth microdilution method; type: functional
Staphylococcus aureus [11] = assay: Antibacterial activity against vancomycin resistant Staphylococcus aureus VRS10 assessed as reduction in bacterial cell growth incubated for 18 to 20 hrs by broth microdilution method; type: functional
Staphylococcus aureus [12] = assay: Bactericidal activity against vancomycin resistant Staphylococcus aureus VRS10 assessed as reduction in bacterial cell growth incubated for 18 to 20 hrs followed by re-plating on tryptic soy agar plates at 37 degC for 18 hrs by broth microdilution assay; type: functional
Listeria monocytogenes [13] = assay: Antibacterial activity against Listeria monocytogenes ATCC 19111 assessed as reduction in bacterial cell growth incubated for 18 to 20 hrs by broth microdilution method; type: functional
Staphylococcus aureus [14] = assay: Antibacterial activity against Staphylococcus aureus NRS107 assessed as reduction in bacterial cell growth incubated for 18 to 20 hrs by broth microdilution method; type: functional
Klebsiella pneumoniae [15] = assay: Bactericidal activity against Klebsiella pneumoniae BAA-1706 assessed as reduction in bacterial cell growth incubated for 18 to 20 hrs followed by re-plating on tryptic soy agar plates at 37 degC for 18 hrs by broth microdilution assay; type: functional
J774 = assay: Cytotoxicity against mouse J774 assessed as reduction in cell viability at 16 ug/ml incubated for 24 hrs by MTS assay; type: cell-based; conditions: j774, 24 h
Staphylococcus aureus [16] = assay: Bactericidal activity against Staphylococcus aureus ATCC 6538 assessed as reduction in bacterial cell growth incubated for 18 to 20 hrs followed by re-plating on tryptic soy agar plates at 37 degC for 18 hrs by broth microdilution assay; type: functional
Staphylococcus aureus [17] = assay: Antibacterial activity against Staphylococcus aureus ATCC 6538 assessed as reduction in bacterial cell growth incubated for 18 to 20 hrs by broth microdilution method; type: functional
[18] = Solubility of compound in PBS after 2 hrs by turbidity based absorbance analysis; type: physicochemical
Streptococcus pneumoniae [19] = assay: Bactericidal activity against Methicillin resistant Streptococcus pneumoniae ATCC 700677 assessed as reduction in bacterial cell growth incubated for 18 to 20 hrs followed by re-plating on tryptic soy agar plates at 37 degC for 18 hrs by broth microdilution assay; type: functional
Staphylococcus aureus [20] = assay: Bactericidal activity against methicillin resistant Staphylococcus aureus NRS119 assessed as reduction in bacterial cell growth incubated for 18 to 20 hrs followed by re-plating on tryptic soy agar plates at 37 degC for 18 hrs by broth microdilution assay; type: functional
Pseudomonas aeruginosa [21] = assay: Bactericidal activity against Pseudomonas aeruginosa ATCC 15442 assessed as reduction in bacterial cell growth incubated for 18 to 20 hrs followed by re-plating on tryptic soy agar plates at 37 degC for 18 hrs by broth microdilution assay; type: functional
Staphylococcus aureus [22] = assay: Bactericidal activity against methicillin-resistant Staphylococcus aureus USA300 assessed as reduction in bacterial cell growth incubated for 18 to 20 hrs followed by re-plating on tryptic soy agar plates at 37 degC for 18 hrs by broth microdilution assay; type: functional
Staphylococcus aureus [23] = assay: Bactericidal activity against vancomycin resistant Staphylococcus aureus VRS12 assessed as reduction in bacterial cell growth incubated for 18 to 20 hrs followed by re-plating on tryptic soy agar plates at 37 degC for 18 hrs by broth microdilution assay; type: functional
Staphylococcus aureus [24] = assay: Antibacterial activity against vancomycin resistant Staphylococcus aureus VRS11a assessed as reduction in bacterial cell growth incubated for 18 to 20 hrs by broth microdilution method; type: functional
Staphylococcus aureus [25] = assay: Bactericidal activity against vancomycin resistant Staphylococcus aureus VRS11a assessed as reduction in bacterial cell growth incubated for 18 to 20 hrs followed by re-plating on tryptic soy agar plates at 37 degC for 18 hrs by broth microdilution assay; type: functional
Escherichia coli [26] = assay: Antibacterial activity against Escherichia coli JW55031 harboring deltatolC mutant assessed as reduction in bacterial cell growth incubated for 18 to 20 hrs by broth microdilution method; type: functional
Escherichia coli [27] = assay: Bactericidal activity against Escherichia coli JW55031 harboring deltatolC mutant assessed as reduction in bacterial cell growth incubated for 18 to 20 hrs followed by re-plating on tryptic soy agar plates at 37 degC for 18 hrs by broth microdilution assay; type: functional
[28] = system: Staphylococcus epidermidis; assay: Antibacterial activity against methicillin resistant Staphylococcus epidermidis NRS101 assessed as reduction in bacterial cell growth incubated for 18 to 20 hrs by broth microdilution method; type: functional
[29] = system: Staphylococcus epidermidis; assay: Bactericidal activity against methicillin resistant Staphylococcus epidermidis NRS101 assessed as reduction in bacterial cell growth incubated for 18 to 20 hrs followed by re-plating on tryptic soy agar plates at 37 degC for 18 hrs by broth microdilution assay; type: functional
Acinetobacter baumannii [30] = assay: Antibacterial activity against Acinetobacter baumannii ATCC 19606 assessed as reduction in bacterial cell growth incubated for 18 to 20 hrs by broth microdilution method; type: functional
Klebsiella pneumoniae [31] = assay: Antibacterial activity against Klebsiella pneumoniae BAA-1706 assessed as reduction in bacterial cell growth incubated for 18 to 20 hrs by broth microdilution method; type: functional
Streptococcus pneumoniae [32] = assay: Antibacterial activity against Cephalosporin resistant Streptococcus pneumoniae ATCC 51916 assessed as reduction in bacterial cell growth incubated for 18 to 20 hrs by broth microdilution method; type: functional
Streptococcus pneumoniae [33] = assay: Bactericidal activity against Cephalosporin resistant Streptococcus pneumoniae ATCC 51916 assessed as reduction in bacterial cell growth incubated for 18 to 20 hrs followed by re-plating on tryptic soy agar plates at 37 degC for 18 hrs by broth microdilution assay; type: functional
Staphylococcus aureus [34] = assay: Bactericidal activity against Staphylococcus aureus NRS107 assessed as reduction in bacterial cell growth incubated for 18 to 20 hrs followed by re-plating on tryptic soy agar plates at 37 degC for 18 hrs by broth microdilution assay; type: functional
Enterococcus faecium [35] = assay: Bactericidal activity against vancomycin resistant Enterococcus faecium ATCC 700221 assessed as reduction in bacterial cell growth incubated for 18 to 20 hrs followed by re-plating on tryptic soy agar plates at 37 degC for 18 hrs by broth microdilution assay; type: functional
Escherichia coli [36] = assay: BActericidal activity against Escherichia coli BW25113 assessed as reduction in bacterial cell growth incubated for 18 to 20 hrs followed by re-plating on tryptic soy agar plates at 37 degC for 18 hrs by broth microdilution assay; type: functional
Staphylococcus aureus [37] = assay: Antibacterial activity against methicillin resistant Staphylococcus aureus NRS119 assessed as reduction in bacterial cell growth incubated for 18 to 20 hrs by broth microdilution method; type: functional
Pseudomonas aeruginosa [38] = assay: Antibacterial activity against Pseudomonas aeruginosa ATCC 15442 assessed as reduction in bacterial cell growth incubated for 18 to 20 hrs by broth microdilution method; type: functional

## C/C(=N\NC(=N)N)c1sc(-c2ccc(C#Cc3ncccn3)cc2)nc1C
Staphylococcus aureus [1]
  MIC: > 64 µg/mL

## COC(=O)c1cccc(C#Cc2ccc(-c3nc(C)c(/C(C)=N/NC(=N)N)s3)cc2)c1
Staphylococcus aureus [1]
  MIC: 32 µg/mL (≈ 74.2 µM)

## COc1ccccc1C#Cc1ccc(-c2nc(C)c(/C(C)=N/NC(=N)N)s2)cc1
Staphylococcus aureus [1]
  MIC: 16 µg/mL (≈ 39.7 µM)

## COC(=O)c1ccccc1C#Cc1ccc(-c2nc(C)c(/C(C)=N/NC(=N)N)s2)cc1
Staphylococcus aureus [1]
  MIC: 16 µg/mL (≈ 37.1 µM)

## C/C(=N\NC(=N)N)c1sc(-c2ccc(C#Cc3cccs3)cc2)nc1C
Acinetobacter baumannii [2]
  MBC: > 64 µg/mL
Escherichia coli [3]
  MIC: > 64 µg/mL
Enterococcus faecium [4]
  MIC: 4 µg/mL (≈ 10.5 µM)
Enterococcus faecalis [5]
  MIC: 64 µg/mL (≈ 169 µM)
Listeria monocytogenes [6]
  MBC: 32 µg/mL (≈ 84.3 µM)
Streptococcus pneumoniae [7]
  MIC: 4 µg/mL (≈ 10.5 µM)
Enterococcus faecalis [8]
  MBC: > 64 µg/mL
Staphylococcus aureus [9]
  MIC: 8 µg/mL (≈ 21.1 µM)
Staphylococcus aureus [10]
  MIC: 4 µg/mL (≈ 10.5 µM)
Staphylococcus aureus [11]
  MIC: 8 µg/mL (≈ 21.1 µM)
Staphylococcus aureus [12]
  MBC: 16 µg/mL (≈ 42.2 µM)
Listeria monocytogenes [13]
  MIC: 8 µg/mL (≈ 21.1 µM)
Staphylococcus aureus [14]
  MIC: 2 µg/mL (≈ 5.27 µM)
Klebsiella pneumoniae [15]
  MBC: > 64 µg/mL
J774
  Activity: Toxic
Staphylococcus aureus [16]
  MBC: 2 µg/mL (≈ 5.27 µM)
Staphylococcus aureus [17]
  MIC: 1 µg/mL (≈ 2.63 µM)
[18]
  solubility kinetic at 2 h: 50 µM (≈ 19 µg/mL)
Streptococcus pneumoniae [19]
  MBC: 8 µg/mL (≈ 21.1 µM)
Staphylococcus aureus [20]
  MBC: 4 µg/mL (≈ 10.5 µM)
Pseudomonas aeruginosa [21]
  MBC: > 64 µg/mL
Staphylococcus aureus [22]
  MBC: 8 µg/mL (≈ 21.1 µM)
Staphylococcus aureus [23]
  MBC: 16 µg/mL (≈ 42.2 µM)
Staphylococcus aureus [24]
  MIC: 1 µg/mL (≈ 2.63 µM)
Staphylococcus aureus [25]
  MBC: 2 µg/mL (≈ 5.27 µM)
Escherichia coli [26]
  MIC: 64 µg/mL (≈ 169 µM)
Escherichia coli [27]
  MBC: > 64 µg/mL
[28]
  MIC: 1 µg/mL (≈ 2.63 µM)
[29]
  MBC: 1 µg/mL (≈ 2.63 µM)
Acinetobacter baumannii [30]
  MIC: > 64 µg/mL
Klebsiella pneumoniae [31]
  MIC: > 64 µg/mL
Streptococcus pneumoniae [32]
  MIC: 4 µg/mL (≈ 10.5 µM)
Streptococcus pneumoniae [33]
  MBC: 4 µg/mL (≈ 10.5 µM)
Staphylococcus aureus [34]
  MBC: 4 µg/mL (≈ 10.5 µM)
Staphylococcus aureus [1]
  MIC: 2 µg/mL (≈ 5.27 µM)
Enterococcus faecium [35]
  MBC: 8 µg/mL (≈ 21.1 µM)
Escherichia coli [36]
  MBC: > 64 µg/mL
Staphylococcus aureus [37]
  MIC: 2 µg/mL (≈ 5.27 µM)
Pseudomonas aeruginosa [38]
  MIC: > 64 µg/mL

## C/C(=N/NC(=N)N)c1ccc(C#Cc2ccc(-c3nc(C)c(/C(C)=N/NC(=N)N)s3)cc2)cc1
Staphylococcus aureus [1]
  MIC: > 64 µg/mL

## C/C(=N\NC(=N)N)c1sc(-c2ccc(C#Cc3cncnc3)cc2)nc1C
Staphylococcus aureus [1]
  MIC: > 64 µg/mL

## C/C(=N\NC(=N)N)c1sc(-c2ccc(C#Cc3ccccc3[N+](=O)[O-])cc2)nc1C
Staphylococcus aureus [1]
  MIC: > 64 µg/mL

## C/C(=N\NC(=N)N)c1sc(-c2ccc(C#Cc3cccc(N)c3)cc2)nc1C
Staphylococcus aureus [1]
  MIC: 4 µg/mL (≈ 10.3 µM)

## C/C(=N\NC(=N)N)c1sc(-c2ccc(C#Cc3ccccn3)cc2)nc1C
Staphylococcus aureus [1]
  MIC: 32 µg/mL (≈ 85.5 µM)

## CC[C@H]1OC(=O)[C@H](C)[C@@H](O[C@H]2C[C@@](C)(OC)[C@@H](O)[C@H](C)O2)[C@H](C)[C@@H](O[C@@H]2O[C@H](C)C[C@H](N(C)C)[C@H]2O)[C@](C)(O)C[C@@H](C)C(=O)[C@H](C)[C@@H](O)[C@]1(C)O [ERYTHROMYCIN]
Acinetobacter baumannii [2]
  MBC: 16 µg/mL (≈ 21.8 µM)
Escherichia coli [3]
  MIC: 32 µg/mL (≈ 43.6 µM)
Klebsiella pneumoniae [15]
  MBC: > 64 µg/mL
Pseudomonas aeruginosa [21]
  MBC: > 64 µg/mL
Escherichia coli [26]
  MIC: 1 µg/mL (≈ 1.36 µM)
Escherichia coli [27]
  MBC: 2 µg/mL (≈ 2.73 µM)
Acinetobacter baumannii [30]
  MIC: 8 µg/mL (≈ 10.9 µM)
Klebsiella pneumoniae [31]
  MIC: 64 µg/mL (≈ 87.2 µM)
Escherichia coli [36]
  MBC: > 64 µg/mL
Pseudomonas aeruginosa [38]
  MIC: > 64 µg/mL

## C/C(=N\NC(=N)N)c1sc(-c2ccc(C#Cc3cc(O)ccc3C)cc2)nc1C
Staphylococcus aureus [1]
  MIC: > 64 µg/mL

## C/C(=N\NC(=N)N)c1sc(-c2ccc(C#Cc3csc(C)c3C)cc2)nc1C
Staphylococcus aureus [1]
  MIC: 16 µg/mL (≈ 39.3 µM)

## C/C(=N\NC(=N)N)c1sc(-c2ccc(C#Cc3ccc(C)cc3)cc2)nc1C
Staphylococcus aureus [1]
  MIC: 32 µg/mL (≈ 82.6 µM)

## C/C(=N\NC(=N)N)c1sc(-c2ccc(C#Cc3ccc(C(N)=S)cc3)cc2)nc1C
Staphylococcus aureus [1]
  MIC: 64 µg/mL (≈ 148 µM)

## C/C(=N\NC(=N)N)c1sc(-c2ccc(C#Cc3ccc(C(N)=O)cc3)cc2)nc1C
Staphylococcus aureus [1]
  MIC: > 64 µg/mL
